In article PMC7926352, “Synthesis, Characterization and In Vitro Evaluation of Novel 5-Ene-thiazolo[3,2-b][1,2,4]triazole-6(5H)-ones as Possible Anticancer Agents” (Molecules, 2021):
Read-outs that look alike come from different tables or passages of the source.

Columns and labels:
RPMI-8226 [1] = system: RPMI-8226
SF-539 [2] = system: SF-539
IGROV1 = type: cell-based, human; conditions: IGROV1, Ovarian Cancer
CNS Cancer cell lines = system: CNS Cancer cell lines; set-up: LC50, values range inside panel: unit not given beside the values
RPMI-8226 [3] = system: RPMI-8226; remark: listed apart in the source
Leukemia cell lines = system: Leukemia cell lines; set-up: LC50, values range inside panel: unit not given beside the values
[4] = system: panel of approximately sixty human tumor cell lines; test: NCI-60 human tumor cell lines screen (SRB), full panel; type: cell-based
[5] = system: Ovarian Cancer cell lines
[6] = system: Prostate Cancer cell lines; set-up: LC50, values range inside panel: unit not given beside the values
SF-539 [7] = system: SF-539; remark: listed apart in the source

## O=C(COc1ccc(Cl)cc1/C=c1\sc2ncnn2c1=O)Nc1ccc(Cl)cc1 [Compound 2h, (Z)-2-(4-Chloro-2-((6-oxothiazolo[3,2-b][1,2,4]triazol-5(6H)-ylidene)methyl)phenoxy)-N-(4-chlorophenyl)acetamide]
RPMI-8226 [1]; Homo sapiens, RPMI-8226
  GI50: 1.69 µM
RPMI-8226 [1]; Homo sapiens, RPMI-8226, read-out: LC50
  CC50: 26.9 µM
RPMI-8226 [1]; RPMI-8226, Leukemia
  TGI: 4.89 µM
SF-539 [2]; Homo sapiens, SF-539
  GI50: 1.77 µM
SF-539 [2]; Homo sapiens, SF-539, read-out: LC50
  CC50: 12.6 µM
SF-539 [2]; SF-539, CNS Cancer
  TGI: 4.46 µM

## Ethyl(Z)-4-(3-(4-chloro-2-((6-oxothiazolo[3,2-b][1,2,4]triazol-5(6H)-ylidene)methyl)phenyl)propanamido)benzoate [Compound 2i]
IGROV1
  GI50: 6.6 µM
  TGI: 20.89 µM
HCC-2998
  CC50: 66.1 µM
MDA-MB-435
  CC50: > 100 µM
MDA-MB-231/ATCC
  CC50: > 100 µM
CAKI-1
  CC50: 55 µM
HCT-15
  CC50: 55 µM
CNS Cancer cell lines
  CC50: 66.2 µM
  LC50, values range inside panel: 43.65– >100
RPMI-8226 [1]; RPMI-8226, Leukemia
  GI50: 5.37 µM
  TGI: 25.70 µM
SF-268
  CC50: > 100 µM
ACHN
  CC50: 53.7 µM
SN12C
  CC50: 58.9 µM
HOP-92
  CC50: 83.2 µM
SF-295
  CC50: 51.3 µM
RPMI-8226 [3]
  CC50: 95.5 µM
NCI-H522
  CC50: 72.4 µM
BT-549
  CC50: 60.2 µM
KM12
  CC50: 55 µM
OVCAR-8
  CC50: 85.1 µM
SW-620
  CC50: 46.8 µM
DU-145
  CC50: 36.3 µM
HOP-62
  CC50: 53.7 µM
EKVX
  CC50: 50.1 µM
Renal Cancer cell lines
  CC50: 55 µM
RXF 393
  CC50: 58.9 µM
HT29
  CC50: 49 µM
SK-MEL-2
  CC50: 77.6 µM
HCT-116
  CC50: 55 µM
SNB-75
  CC50: > 100 µM
Leukemia cell lines
  CC50: 99.2 µM
  LC50, values range inside panel: 95.49– >100
CCRF-CEM
  CC50: > 100 µM
UACC-62
  CC50: 51.3 µM
[4]
  CC50: 63.1 µM
OVCAR-5
  CC50: 58.9 µM
UO-31
  CC50: 55 µM
U251
  CC50: 43.6 µM
MOLT-4
  CC50: > 100 µM
SK-OV-3
  CC50: 61.6 µM
Melanoma cell lines
  CC50: 42.6 to 77.6 µM
HS 578T
  CC50: 60.2 µM
M14
  CC50: 58.9 µM
[5]
  CC50: 68.7 µM
TK-10
  CC50: 51.3 µM
A498
  CC50: 56.2 µM
[6]
  CC50: 68.2 µM
  LC50, values range inside panel: 36.30– >100
PC-3
  CC50: > 100 µM
SK-MEL-5
  CC50: 46.8 µM
LOX IMVI
  CC50: 42.6 µM
SK-MEL-28
  CC50: 49 µM
SF-539 [7]
  CC50: 50.1 µM
SR
  CC50: > 100 µM
UACC-257
  CC50: 63.1 µM
SF-539 [2]; SF-539, CNS Cancer
  GI50: 12.6 µM
  TGI: 25.11 µM
MALME-3M
  CC50: 53.7 µM
OVCAR-3
  CC50: 55 µM
K-562
  CC50: > 100 µM
